Measurements from US10934298B2, “Substituted pyrazolo[1,5-a]pyrimidines for the treatment of medical disorders” (BIAL—BioTech Investments, Inc., priority 2016, dated 2021).

Biological target: T1, glucocerebrosidase (Gcase) (Homo sapiens, UniProt P04062)
T1 construct: micellar solution containing 10 nM GCase and 100 nM saposin C
T1 sequence (P04062 40-536): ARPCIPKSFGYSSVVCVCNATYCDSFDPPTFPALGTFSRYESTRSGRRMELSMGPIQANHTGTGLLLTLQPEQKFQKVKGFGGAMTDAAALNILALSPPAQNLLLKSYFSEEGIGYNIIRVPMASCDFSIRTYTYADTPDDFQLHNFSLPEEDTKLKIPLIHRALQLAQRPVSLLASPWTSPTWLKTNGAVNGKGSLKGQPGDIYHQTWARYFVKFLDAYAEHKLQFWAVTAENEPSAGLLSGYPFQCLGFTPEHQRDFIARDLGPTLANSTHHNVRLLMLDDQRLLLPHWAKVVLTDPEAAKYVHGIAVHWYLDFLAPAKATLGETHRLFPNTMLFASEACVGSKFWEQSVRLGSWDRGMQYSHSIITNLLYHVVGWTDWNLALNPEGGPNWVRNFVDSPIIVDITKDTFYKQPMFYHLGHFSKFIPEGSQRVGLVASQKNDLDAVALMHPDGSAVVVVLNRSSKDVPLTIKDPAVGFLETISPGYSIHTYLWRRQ
Experiment: Glucocerebrosidase (Gcase) activation assay with 4-methylumbelliferyl-beta-D-glucopyranoside substrate, saposin C and phosphatidylserine/triton micelles, fluorescence readout
Format: biochemical
Outline: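 10 nM GCase with 100 nM saposin C pre-incubated 30 min with compound in pH 4.7 phosphate/citrate PS/triton micelles, then mixed 1:1 with 2 mM 4-methylumbelliferyl-β-glucoside micellar substrate (stock level). Run 15 min at room temperature, stopped at pH 12.5; fluorescence 365/440 nm. Screened at 1.0 and 0.1 μM; 8-point curves from 5 μM.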

Row | Compound | Percent Gcase Activation, 0.1 μM Test Compound (test compound at 0.1 μM) | Percent Gcase Activation, 1 μM Test Compound (test compound at 1.0 μM) | further results
1 | Cc1cc(-c2c(F)cccc2C#N)nc2c(C(=O)N[C@@H](C)C(F)(F)F)cnn12 [III-400] |  |  | Percent Gcase Activation, 0.1 μM Test Compound (0.1 μM test compound): ** (Gcase activation in the range of 10% up to 20%); Percent Gcase Activation, 1 μM Test Compound (1 μM test compound): +++ (Gcase activation greater than 60%)
2 | Cc1cc(-c2cc(C)n3ncc(C(=O)N[C@H](C4CC4)C(F)(F)F)c3n2)sn1 [III-215] | *** (greater than 20% Gcase activation) | +++ (Gcase activation greater than 60%) | 
3 | Cc1cc(-c2cc(C)n3ncc(C(=O)N[C@H](C)C(F)(F)F)c3n2)co1 [III-338] |  |  | Percent Gcase Activation, 0.1 μM Test Compound (0.1 μM test compound): *** (greater than 20% Gcase activation); Percent Gcase Activation, 1 μM Test Compound (1 μM test compound): +++ (Gcase activation greater than 60%)
4 | Cc1cc(-c2cccc(F)c2C#N)nc2c(C(=O)N[C@@H](C)C(F)(F)F)cnn12 [III-399] |  |  | Percent Gcase Activation, 0.1 μM Test Compound (0.1 μM test compound): *** (greater than 20% Gcase activation); Percent Gcase Activation, 1 μM Test Compound (1 μM test compound): +++ (Gcase activation greater than 60%)
5 | Cc1cc(-c2ccc3ocnc3c2)nc2c(C(=O)NC(C3CC3)C(F)(F)F)cnn12 (centres unmarked) [III-108] | *** (greater than 20% Gcase activation) | +++ (Gcase activation greater than 60%) | 
6 | COc1cccc(-c2cc(C)n3ncc(C(=O)N[C@H](C)C(F)(F)F)c3n2)c1 [III-90] | *** (greater than 20% Gcase activation) | +++ (Gcase activation greater than 60%) | 
7 | COc1ccc(-c2cc(C)n3ncc(C(=O)NC(C4CC4)C(F)(F)F)c3n2)cn1 (centres unmarked) [III-268] | *** (greater than 20% Gcase activation) | +++ (Gcase activation greater than 60%) | 
8 | Cc1cc(-c2cccc(C#N)c2)nc2c(C(=O)N[C@@H](C)C3CC3)cnn12 [III-70] |  |  | Percent Gcase Activation, 0.1 μM Test Compound (0.1 μM test compound, Table 3A): *** (greater than 20% Gcase activation); Percent Gcase Activation, 1 μM Test Compound (1 μM test compound, Table 3A): +++ (Gcase activation greater than 60%)
9 | Cc1cc(-c2cscc2C#N)nc2c(C(=O)NC(C3CC3)C(F)(F)F)cnn12 (centres unmarked) [III-188] | *** (greater than 20% Gcase activation) | +++ (Gcase activation greater than 60%) | 
10 | COc1c(F)cccc1-c1cc(C)n2ncc(C(=O)N[C@@H](C)C3CC3)c2n1 [III-138] | ** (Gcase activation in the range of 10% up to 20%) | +++ (Gcase activation greater than 60%) | 
11 | Cc1cc(N2CCN(C(C)C)C2=O)nc2c(C(=O)NC(C3CC3)C(F)(F)F)cnn12 (centres unmarked) [III-225] | ** (Gcase activation in the range of 10% up to 20%) | +++ (Gcase activation greater than 60%) | 
12 | Cc1cc(-c2cncc(Cl)c2)nc2c(C(=O)N[C@H](C)C3CC3)cnn12 [III-291] |  |  | Percent Gcase Activation, 0.1 μM Test Compound (0.1 μM test compound): *** (greater than 20% Gcase activation); Percent Gcase Activation, 1 μM Test Compound (1 μM test compound): +++ (Gcase activation greater than 60%)
13 | Cc1cc(N2CCCCC2)nc2c(C(=O)NC(C)(C)C3CC3)cnn12 [III-23] |  |  | Percent Gcase Activation, 0.1 μM Test Compound (0.1 μM test compound, Table 3A): *** (greater than 20% Gcase activation); Percent Gcase Activation, 1 μM Test Compound (1 μM test compound, Table 3A): +++ (Gcase activation greater than 60%)
14 | Cc1coc(-c2cc(C)n3ncc(C(=O)NC(C4CC4)C(F)(F)F)c3n2)n1 (centres unmarked) [III-254] | *** (greater than 20% Gcase activation) | +++ (Gcase activation greater than 60%) | 
15 | Cc1cc(-c2cccc3ncoc23)nc2c(C(=O)NC(C)(C)C3CC3)cnn12 [III-223] | *** (greater than 20% Gcase activation) | +++ (Gcase activation greater than 60%) | 
16 | CCc1cc(-c2ccccn2)nc2c(C(=O)NC(C)C3CC3)cnn12 (centres unmarked) [III-49] |  |  | Percent Gcase Activation, 0.1 μM Test Compound (0.1 μM test compound, Table 3A): * (less than 10% Gcase activation); Percent Gcase Activation, 1 μM Test Compound (1 μM test compound, Table 3A): +++ (Gcase activation greater than 60%)
17 | Cc1cc(-c2cccc3ocnc23)nc2c(C(=O)NC(C3CC3)C(F)(F)F)cnn12 (centres unmarked) [III-106] | *** (greater than 20% Gcase activation) | ++ (Gcase activation in the range of 30% up to 60%) | 
18 | Cc1cc(-c2ccc3ncn(C)c3c2)nc2c(C(=O)NC(C3CC3)C(F)(F)F)cnn12 (centres unmarked) [III-304] |  |  | Percent Gcase Activation, 0.1 μM Test Compound (0.1 μM test compound): ** (Gcase activation in the range of 10% up to 20%); Percent Gcase Activation, 1 μM Test Compound (1 μM test compound): +++ (Gcase activation greater than 60%)
19 | Cc1cc(-c2cccc(F)c2)nc2c(C(=O)NC(C)(C)C(F)(F)F)cnn12 [III-80] |  |  | Percent Gcase Activation, 0.1 μM Test Compound (0.1 μM test compound, Table 3A): ** (Gcase activation in the range of 10% up to 20%); Percent Gcase Activation, 1 μM Test Compound (1 μM test compound, Table 3A): +++ (Gcase activation greater than 60%)

Row | Compound | Percent Gcase Activation, 0.1 μM Test Compound (test compound at 0.1 μM) | Percent Gcase Activation, 1 μM Test Compound (test compound at 1.0 μM) | further results
20 | Cc1cc(-c2cnccc2C(F)(F)F)nc2c(C(=O)N[C@@H](C3CC3)C(F)(F)F)cnn12 [III-354] |  |  | Percent Gcase Activation, 0.1 μM Test Compound (0.1 μM test compound): *** (greater than 20% Gcase activation); Percent Gcase Activation, 1 μM Test Compound (1 μM test compound): +++ (Gcase activation greater than 60%)
21 | Cc1cc(-c2cncc(Cl)c2)nc2c(C(=O)N[C@@H](C)C(F)(F)F)cnn12 [III-202] | *** (greater than 20% Gcase activation) | +++ (Gcase activation greater than 60%) | 
22 | COc1ccc(F)cc1-c1cc(C)n2ncc(C(=O)NC(C)C(F)(F)F)c2n1 (centres unmarked) [III-194] | *** (greater than 20% Gcase activation) | +++ (Gcase activation greater than 60%) | 
23 | Cc1ccc(-c2cc(C)n3ncc(C(=O)N[C@H](C4CC4)C(F)(F)F)c3n2)cn1 [III-279] | ** (Gcase activation in the range of 10% up to 20%) | +++ (Gcase activation greater than 60%) | 
24 | Cc1cc(-c2cccc3ncoc23)nc2c(C(=O)N[C@H](C)C3CC3)cnn12 [III-218] | * (less than 10% Gcase activation) | ++ (Gcase activation in the range of 30% up to 60%) | 
25 | Cc1cc(-c2cc(C#N)ccc2F)nc2c(C(=O)N[C@@H](C)C(F)(F)F)cnn12 [III-352] |  |  | Percent Gcase Activation, 0.1 μM Test Compound (0.1 μM test compound): ** (Gcase activation in the range of 10% up to 20%); Percent Gcase Activation, 1 μM Test Compound (1 μM test compound): +++ (Gcase activation greater than 60%)
26 | Cc1nc(-c2cc(C)n3ncc(C(=O)N[C@H](C4CC4)C(F)(F)F)c3n2)c(C)o1 [III-333] |  |  | Percent Gcase Activation, 0.1 μM Test Compound (0.1 μM test compound): *** (greater than 20% Gcase activation); Percent Gcase Activation, 1 μM Test Compound (1 μM test compound): +++ (Gcase activation greater than 60%)
27 | Cc1cc(N2CCCC(F)(F)C2)nc2c(C(=O)NC(C)C3CC3)cnn12 (centres unmarked) [III-61] |  |  | Percent Gcase Activation, 0.1 μM Test Compound (0.1 μM test compound, Table 3A): *** (greater than 20% Gcase activation); Percent Gcase Activation, 1 μM Test Compound (1 μM test compound, Table 3A): +++ (Gcase activation greater than 60%)
28 | Cc1cc(C)n2ncc(C(=O)N[C@@H](C3CC3)C(F)(F)F)c2n1 [III-11] |  |  | Percent Gcase Activation, 0.1 μM Test Compound (0.1 μM test compound, Table 3A): ** (Gcase activation in the range of 10% up to 20%); Percent Gcase Activation, 1 μM Test Compound (1 μM test compound, Table 3A): +++ (Gcase activation greater than 60%)
29 | Cc1cc(-c2cnccc2F)nc2c(C(=O)NC(C)C(F)(F)F)cnn12 (centres unmarked) [III-199] | * (less than 10% Gcase activation) | ++ (Gcase activation in the range of 30% up to 60%) | 
30 | Cc1cc(-c2ccc(F)cc2)n2nc(Cl)c(C(=O)N[C@@H](C)C3CC3)c2n1 [III-33] |  |  | Percent Gcase Activation, 0.1 μM Test Compound (0.1 μM test compound, Table 3A): * (less than 10% Gcase activation); Percent Gcase Activation, 1 μM Test Compound (1 μM test compound, Table 3A): ++ (Gcase activation in the range of 30% up to 60%)
31 | COc1ccc(F)c(-c2cc(C)n3ncc(C(=O)N[C@H](C)C(F)(F)F)c3n2)c1 [III-97] | ** (Gcase activation in the range of 10% up to 20%) | +++ (Gcase activation greater than 60%) | 
32 | Cc1conc1-c1cc(C)n2ncc(C(=O)N[C@H](C3CC3)C(F)(F)F)c2n1 [III-342] |  |  | Percent Gcase Activation, 0.1 μM Test Compound (0.1 μM test compound): *** (greater than 20% Gcase activation); Percent Gcase Activation, 1 μM Test Compound (1 μM test compound): +++ (Gcase activation greater than 60%)
33 | Cc1cc(-c2ccc(F)o2)nc2c(C(=O)N[C@H](C)C(F)(F)F)cnn12 [III-334] |  |  | Percent Gcase Activation, 0.1 μM Test Compound (0.1 μM test compound): *** (greater than 20% Gcase activation); Percent Gcase Activation, 1 μM Test Compound (1 μM test compound): +++ (Gcase activation greater than 60%)
34 | Cc1cc(-c2cccc3ncsc23)nc2c(C(=O)N[C@@H](C)C3CC3)cnn12 [III-222] | *** (greater than 20% Gcase activation) | +++ (Gcase activation greater than 60%) | 
35 | Cc1cc(-c2ccc(F)cc2C#N)nc2c(C(=O)N[C@H](C)C3CC3)cnn12 [III-153] | ** (Gcase activation in the range of 10% up to 20%) | +++ (Gcase activation greater than 60%) | 
36 | Cc1cc(-c2cccc3c2OCO3)nc2c(C(=O)NC(C3CC3)C(F)(F)F)cnn12 (centres unmarked) [III-183] | *** (greater than 20% Gcase activation) | +++ (Gcase activation greater than 60%) | 
37 | Cc1cc(-c2ccc(C#N)nc2)nc2c(C(=O)N[C@@H](C3CC3)C(F)(F)F)cnn12 [III-368] |  |  | Percent Gcase Activation, 0.1 μM Test Compound (0.1 μM test compound): ** (Gcase activation in the range of 10% up to 20%); Percent Gcase Activation, 1 μM Test Compound (1 μM test compound): +++ (Gcase activation greater than 60%)
